# Assay results reported in publication PMC9506420, “Biological Evaluation of 3-Azaspiro[Bicyclo[3.1.0]Hexane-2,5′-Pyrimidines] as Potential Antitumor Agents” (International Journal of Molecular Sciences, 2022).
# Values joined by “and” are separate entries in the source; they are usually repeats but may differ in a detail not shown here. Identical values can stand only once.
# Legend:
# CT26 tumor = test: In vivo evaluation in CT26 tumor-bearing Balb/C mice; conditions: for death of experimental animals by the end of the observation period: n = 7 per group, single i.p. 300 μL of 3 μM suspension, 10 days, control group one animal; for autopsy finding in the abdominal cavity (agglomerates of injected material): autopsy at end of experiment, diameter of up to 1 mm
# Experimental: In vivo studies were performed using CT26 tumor-bearing Balb/C mice. After the average tumor volume reached approximately 270 mm^3, the mice were injected intraperitoneally with 300 μL of 3 μM suspension of compounds 4d, 4e, 4f, and 4i in 10% aq. DMSO solution. Mice in the control group were injected with 300 μL of 10% aq. DMSO solution. Observation of the animals continued for 10 days, with the measurement of tumor sizes two times a week.
# All animals were bred and maintained in specific pathogen-free facilities in accordance with the Rus-LASA and FELASA guidelines. This study complied with all relevant ethical regulations for animal testing and research and received ethical approval from the Almazov National Medical Research Centre (protocol No. 21-02, dated 26 March 2021). Animal experiments were carried out in accordance with the principles of humane treatment of animals, regulated by requirements of Council of Europe 2006; European Convention for the Protection of Vertebrate Animals Used for Experimental and other Scientific Purposes (ETS No. 123); the European Parliament and the Council of the European Union 2010; Directive 2010/63/EU of the European Parliament and of the Council of 22 September 2010 on the Protection of Animals Used for Scientific Purposes; and FELASA guidelines. Male, 20–22 g, SPF Balb/C mice (Pushchino, Moscow region, Russian Federation) were used throughout. Animals were maintained at 22 ± 2 °C and relative humidity 50 ± 10% with 12 h light/dark cycle. All mice received water and food ad libitum. Animals were checked daily by the veterinarian, and their state of health was monitored continuously. Animal body weight was recorded every three days (GX-600 Precision Balance, A&D Weighing, San Jose, CA, USA).
# The greatest transverse diameter (width) and the greatest longitudinal diameter (length) of a tumor were determined with a Vernier mechanical caliper. The tumor volume (V) was calculated using the following formula: V = length × width 2/2000 [50]. Mice were inoculated subcutaneously in the right flank, with 2 × 10^6 CT26 cells per mouse in PBS (Corning, Glendale, AZ, USA). Ten days later, when the average tumor volume reached […], the mice were randomized into groups (n = 7 per group). An amount of 300 μL of 3 μM suspension of compounds 4d, 4e, 4f, and 4i in 10% aq. DMSO solution was injected intraperitoneally at once. The control group was injected with 10% aq. DMSO solution only. The tumor volumes were monitored as described above, along with body weight. Mice were euthanized when the subcutaneous tumor reached a volume of […].
# CT26 cells [1] = test: Cell cycle distribution by flow cytometry (propidium iodide), CT26; assay type: cell-based, mouse; conditions: for SubG1 (%) / G2/M (%) / S (%) / G0/G1 (%): CT26, 10 μg/mL, 24 h; for SubG1 (%): control 3.6 ± 0.6; for G2/M (%): control 12.3 ± 0.9; for S (%): control 40.1 ± 1.5; for G0/G1 (%): control 44.0 ± 1.7; for cytostatic effect (cell cycle), CT26: CT26 cell line
# Experimental: One of the indicators of the influence of biologically active products on the cells is the changed distribution of cells during different stages of the cell cycle. In this work, recently synthesized compounds were tested using flow cytometry for their effect on the distribution of cells in the cell cycle (G0/G1, G2/M, and S). Figure 8, Figure 9 and Figure 10 and Table 3 show the typical data after processing the results from three replicates of each experiment.
# The distribution of HeLa and CT26 cells in the G0/G1-, S-, and G2/M-phases of the cell cycle was obtained by quantification of DNA content in propidium-iodide-stained cells using flow cytometry. Briefly, cells were seeded in 24-well plates at a density of 5 × 10^4 cells per well. After 24 h incubation, cells were exposed to 10 μg/mL of compounds 4c–i (the structure is provided in Scheme 1) for 24 h. The effects of compounds 4d, 4e, 4g, 4h were additionally tested at concentrations of 2 and 5 μg/mL. After incubation with drugs, the cells were detached by exposure to trypsin-EDTA for 5 min at 37 °C and then collected by pipetting. This was followed by treatment with 0.2 mg/mL saponin (Fluka, Waltham, MA, USA), 0.25 mg/mL RNase (Sigma-Aldrich, St. Louis, MO, USA), and 0.05 mg/mL propidium iodide (Invitrogen, Carlsbad, CA, USA). After washing, the samples were analyzed by standard flow cytometer (BD FACSCanto II, Becton Dickinson, San Jose, CA, USA). Then, 10,000 events were acquired for the sample. Data processing was performed using BD FACSDiva 9.0 software.
# CT26 cells [2] = test: Annexin V-FITC/DAPI cell death analysis, CT26; assay type: cell-based, mouse; conditions: CT26, 10 μg/mL, 72 h; for Necrotic Cells, %: control 0.0 ± 0.0; for Late Apoptotic Cells, %: control 0.9 ± 0.4; for Early Apoptotic Cells, %: control 10.5 ± 0.7; for Live Cells, %: control 88.5 ± 1.1
# Experimental: The results of cell death detection after the exposure of the HeLa and CT26 cell lines to spiro-fused cycloadducts 4c–i at a dose of 10 μg/mL for 72 h, using Annexin V-FITC/DAPI staining, are shown in Figure 6 and Figure 7, respectively.
# Cells were seeded in 24-well plates, 5 × 10^4 cells per well. After 24 h incubation, cells were treated with compounds 4c–i for 72 h. Then, cells were washed, harvested by trypsinisation, stained with Annexin V-FITC ([…]) and DAPI (Thermo Fisher Scientific, Waltham, MA, USA), in accordance with the protocol of the manufacturer, and analyzed by flow cytometry. The proapoptotic effect of azaspiro[bicyclo[3.1.0]hexane-2,5′-pyrimidines] 4c–i was evaluated by an Annexin V-FITC/DAPI (AV/DAPI) dual-staining assay to examine the occurrence of phosphatidylserine externalization, which facilitated the detection of live cells (lower-left quadrant; AV−/DAPI−), early apoptotic cells (upper-left quadrant; AV+/DAPI−), late apoptotic cells (upper-right quadrant; AV+/DAPI+), and necrotic cells (lower-right quadrant; AV−/DAPI+).
SMILES,death of experimental animals by the end of the observation period (CT26 tumor),autopsy finding in the abdominal cavity (agglomerates of injected material) (CT26 tumor; single i.p. injection),SubG1 (%) (CT26 cells [1]),G2/M (%) (CT26 cells [1]),S (%) (CT26 cells [1]),G0/G1 (%) (CT26 cells [1]),"cytostatic effect (cell cycle), CT26 (CT26 cells [1])","Necrotic Cells, % (CT26 cells [2]) [%]","Late Apoptotic Cells, % (CT26 cells [2]) [%]","Early Apoptotic Cells, % (CT26 cells [2]) [%]","Live Cells, % (CT26 cells [2])","macroscopic signs of acute toxicity at autopsy (CT26 tumor; single i.p. injection, autopsy of abdominal organs)"
O=C1NC(=O)C2(N[C@@H](c3ccccc3)[C@@]3(c4ccccc4)[C@H](c4ccccc4)[C@@]23c2ccccc2)C(=O)N1 [Compound 4i],three,"persistent, rounded, dense agglomerates of white or yellowish-white foreign material",7.2 ± 2.2,22.4 ± 1.7,37.2 ± 0.2,33.2 ± 0.6,best effect,0.4 ± 0.1,19.5 ± 0.5,4.0 ± 0.1,76.2 ± 0.3 %,–
CCCC[C@@H]1NC2(C(=O)NC(=O)NC2=O)[C@]2(c3ccccc3)[C@@H](c3ccccc3)[C@]12c1ccccc1 [Compound 4e],two,"persistent, rounded, dense agglomerates of white or yellowish-white foreign material",19.3 ± 5.1,14.1 ± 9.4,28.5 ± 1.8,38.1 ± 6.4,best effect,1.4 ± 0.1,61.6 ± 0.5,23.4 ± 0.8,13.5% and 13.5 ± 0.4 %,No signs of acute intoxication
CCCCCC[C@@H]1NC2(C(=O)NC(=O)NC2=O)[C@]2(c3ccccc3)[C@@H](c3ccccc3)[C@]12c1ccccc1 [Compound 4g],–,–,1.9 ± 0.5,19.4 ± 4.7,17.0 ± 4.3,61.7 ± 9.4,–,0.3 ± 0.1,10.0 ± 0.3,5.5 ± 0.1,84.2 ± 0.3 %,–
CC[C@@H]1NC2(C(=O)NC(=O)NC2=O)[C@]2(c3ccccc3)[C@@H](c3ccccc3)[C@]12c1ccccc1 [Compound 4c],–,–,2.0 ± 0.4,13.2 ± 2.9,16.3 ± 1.7,68.5 ± 3.0,–,1.8 ± 0.8,6.4 ± 1.0,1.9 ± 0.3,89.8 ± 0.5%,–
CSCC[C@@H]1NC2(C(=O)NC(=O)NC2=O)[C@]2(c3ccccc3)[C@@H](c3ccccc3)[C@]12c1ccccc1 [Compound 4h],–,–,10.8 ± 2.3,18.9 ± 6.8,32.0 ± 0.6,38.3 ± 7.9,best effect,0.9 ± 0.3,24.0 ± 0.7,4.8 ± 0.5,70.3 ± 0.6 %,–
CC(C)C[C@@H]1NC2(C(=O)NC(=O)NC2=O)[C@]2(c3ccccc3)[C@@H](c3ccccc3)[C@]12c1ccccc1 [Compound 4f],one,–,24.9 ± 5.2,13.5 ± 0.9,31.9 ± 2.6,29.7 ± 1.4,best effect,1.9 ± 0.5,57.8 ± 3.1,6.2 ± 1.2,34.1 ± 3.8 %,–
CCC[C@@H]1NC2(C(=O)NC(=O)NC2=O)[C@]2(c3ccccc3)[C@@H](c3ccccc3)[C@]12c1ccccc1 [Compound 4d],No deaths,"persistent, rounded, dense agglomerates of white or yellowish-white foreign material",12.2 ± 1.1,17.9 ± 0.6,34.4 ± 2.3,35.6 ± 1.0,best effect,1.1 ± 0.3,56.4 ± 2.4,9.6 ± 0.5,32.8 ± 3.0 %,–
